Test results published in article PMC6199744, “Development of Chemical Proteomics for the Folateome and Analysis of the Kinetoplastid Folateome” (ACS Infectious Diseases, 2018).
Read-outs that look alike come from different tables or passages of the source.

Experiments:
Assay type in all cases: binding
[1] = target: T1, HeLa cell extract proteins (Homo sapiens, UniProt P05455)
T1 construct: endogenous in cells; host or cells: HeLa cell extract
T1 sequence (P05455 1-408): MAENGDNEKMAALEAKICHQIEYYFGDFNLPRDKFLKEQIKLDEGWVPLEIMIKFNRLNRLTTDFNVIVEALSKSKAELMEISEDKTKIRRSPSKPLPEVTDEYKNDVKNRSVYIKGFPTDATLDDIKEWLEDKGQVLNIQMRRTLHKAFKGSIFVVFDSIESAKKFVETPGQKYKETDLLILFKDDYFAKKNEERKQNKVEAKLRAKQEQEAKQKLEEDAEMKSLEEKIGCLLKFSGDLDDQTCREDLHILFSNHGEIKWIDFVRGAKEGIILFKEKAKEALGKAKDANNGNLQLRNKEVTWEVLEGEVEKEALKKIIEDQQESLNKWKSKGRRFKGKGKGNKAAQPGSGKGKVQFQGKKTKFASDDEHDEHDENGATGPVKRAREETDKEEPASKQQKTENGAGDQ

[2] = target: T2, HeLa cell extract proteins (Homo sapiens, UniProt P23284)
T2 construct: endogenous in cells; host or cells: HeLa cell extract
T2 sequence (P23284 34-216): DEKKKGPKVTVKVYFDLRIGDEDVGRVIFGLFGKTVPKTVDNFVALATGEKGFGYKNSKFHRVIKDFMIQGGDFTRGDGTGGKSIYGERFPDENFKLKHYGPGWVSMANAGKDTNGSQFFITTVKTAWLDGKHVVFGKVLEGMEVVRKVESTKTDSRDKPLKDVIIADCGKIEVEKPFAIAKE

[3] = target: T3, HeLa cell extract proteins (Homo sapiens, UniProt P23528)
T3 construct: endogenous in cells; host or cells: HeLa cell extract
T3 sequence (P23528 whole entry): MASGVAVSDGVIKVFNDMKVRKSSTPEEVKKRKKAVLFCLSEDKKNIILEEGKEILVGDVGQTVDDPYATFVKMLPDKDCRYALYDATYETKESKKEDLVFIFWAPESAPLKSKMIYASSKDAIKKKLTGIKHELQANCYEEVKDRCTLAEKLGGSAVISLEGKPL

[4] = target: T4, HeLa cell extract proteins (Homo sapiens, UniProt P50991)
T4 construct: endogenous in cells; host or cells: HeLa cell extract
T4 sequence (P50991 1-539): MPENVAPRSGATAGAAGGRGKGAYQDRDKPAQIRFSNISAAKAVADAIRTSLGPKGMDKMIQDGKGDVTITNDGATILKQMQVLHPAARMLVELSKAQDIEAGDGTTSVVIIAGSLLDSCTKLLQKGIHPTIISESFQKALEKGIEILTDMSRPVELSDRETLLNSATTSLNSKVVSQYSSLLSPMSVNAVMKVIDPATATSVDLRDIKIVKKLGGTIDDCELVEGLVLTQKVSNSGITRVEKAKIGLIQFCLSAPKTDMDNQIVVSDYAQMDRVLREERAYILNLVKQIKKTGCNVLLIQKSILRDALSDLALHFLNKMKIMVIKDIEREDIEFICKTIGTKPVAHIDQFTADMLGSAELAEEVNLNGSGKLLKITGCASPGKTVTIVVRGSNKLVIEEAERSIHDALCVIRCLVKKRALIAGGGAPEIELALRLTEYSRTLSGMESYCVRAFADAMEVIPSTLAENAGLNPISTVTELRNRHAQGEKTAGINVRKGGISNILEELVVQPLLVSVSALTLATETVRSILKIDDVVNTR

[5] = target: T5, HeLa cell extract proteins (Homo sapiens, UniProt Q01518)
T5 construct: endogenous in cells; host or cells: HeLa cell extract
T5 sequence (Q01518 whole entry): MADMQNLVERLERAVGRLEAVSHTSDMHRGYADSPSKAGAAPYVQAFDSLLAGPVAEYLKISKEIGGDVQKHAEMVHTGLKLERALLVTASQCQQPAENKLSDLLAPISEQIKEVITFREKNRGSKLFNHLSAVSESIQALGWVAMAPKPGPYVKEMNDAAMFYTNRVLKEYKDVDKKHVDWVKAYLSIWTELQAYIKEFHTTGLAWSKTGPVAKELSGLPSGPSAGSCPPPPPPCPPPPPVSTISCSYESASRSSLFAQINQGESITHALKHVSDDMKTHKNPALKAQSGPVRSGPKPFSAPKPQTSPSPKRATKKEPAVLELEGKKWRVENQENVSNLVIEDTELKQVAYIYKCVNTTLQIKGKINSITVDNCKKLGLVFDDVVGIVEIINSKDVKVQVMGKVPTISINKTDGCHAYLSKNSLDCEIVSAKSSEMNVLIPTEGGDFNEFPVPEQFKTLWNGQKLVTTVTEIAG

[6] = target: T6, HeLa cell extract proteins (Homo sapiens, UniProt Q07021)
T6 construct: endogenous in cells; host or cells: HeLa cell extract
T6 sequence (Q07021 74-282): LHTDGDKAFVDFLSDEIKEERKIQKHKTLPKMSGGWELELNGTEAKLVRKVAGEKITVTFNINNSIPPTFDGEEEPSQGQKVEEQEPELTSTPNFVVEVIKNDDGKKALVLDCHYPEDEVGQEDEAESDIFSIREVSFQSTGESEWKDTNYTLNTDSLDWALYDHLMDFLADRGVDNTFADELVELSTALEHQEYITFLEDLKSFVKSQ

[7] = target: T7, HeLa cell extract proteins (Homo sapiens, UniProt Q15029)
T7 construct: endogenous in cells; host or cells: HeLa cell extract
T7 sequence (Q15029 1-972): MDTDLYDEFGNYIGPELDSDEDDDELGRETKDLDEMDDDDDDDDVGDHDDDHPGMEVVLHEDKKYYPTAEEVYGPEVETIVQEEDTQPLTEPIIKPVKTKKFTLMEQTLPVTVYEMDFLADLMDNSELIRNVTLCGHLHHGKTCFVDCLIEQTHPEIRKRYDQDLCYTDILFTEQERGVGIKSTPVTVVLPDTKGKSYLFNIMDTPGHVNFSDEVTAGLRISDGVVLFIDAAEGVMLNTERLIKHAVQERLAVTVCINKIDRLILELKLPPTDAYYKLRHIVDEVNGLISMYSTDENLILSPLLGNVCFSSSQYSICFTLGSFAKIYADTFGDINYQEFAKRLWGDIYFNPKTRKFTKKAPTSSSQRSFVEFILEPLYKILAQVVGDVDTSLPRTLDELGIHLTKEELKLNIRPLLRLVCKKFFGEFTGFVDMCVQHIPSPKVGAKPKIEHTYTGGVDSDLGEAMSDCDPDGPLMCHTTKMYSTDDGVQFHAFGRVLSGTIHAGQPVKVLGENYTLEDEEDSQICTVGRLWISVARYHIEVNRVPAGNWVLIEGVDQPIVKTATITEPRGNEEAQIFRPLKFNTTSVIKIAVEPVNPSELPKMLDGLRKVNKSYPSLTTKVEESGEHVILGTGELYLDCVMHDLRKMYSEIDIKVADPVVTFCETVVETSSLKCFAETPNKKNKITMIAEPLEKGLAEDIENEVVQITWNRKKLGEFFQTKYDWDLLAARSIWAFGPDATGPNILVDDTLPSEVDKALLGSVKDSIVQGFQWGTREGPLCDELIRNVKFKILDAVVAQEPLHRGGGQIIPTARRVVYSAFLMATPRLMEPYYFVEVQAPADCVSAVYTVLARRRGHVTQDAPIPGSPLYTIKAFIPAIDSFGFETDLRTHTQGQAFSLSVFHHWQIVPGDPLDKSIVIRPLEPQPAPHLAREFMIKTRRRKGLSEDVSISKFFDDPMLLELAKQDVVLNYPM

[8] = target: T8, HeLa cell extract proteins (Homo sapiens, UniProt Q5JVF3)
T8 construct: endogenous in cells; host or cells: HeLa cell extract
T8 sequence (Q5JVF3 whole entry): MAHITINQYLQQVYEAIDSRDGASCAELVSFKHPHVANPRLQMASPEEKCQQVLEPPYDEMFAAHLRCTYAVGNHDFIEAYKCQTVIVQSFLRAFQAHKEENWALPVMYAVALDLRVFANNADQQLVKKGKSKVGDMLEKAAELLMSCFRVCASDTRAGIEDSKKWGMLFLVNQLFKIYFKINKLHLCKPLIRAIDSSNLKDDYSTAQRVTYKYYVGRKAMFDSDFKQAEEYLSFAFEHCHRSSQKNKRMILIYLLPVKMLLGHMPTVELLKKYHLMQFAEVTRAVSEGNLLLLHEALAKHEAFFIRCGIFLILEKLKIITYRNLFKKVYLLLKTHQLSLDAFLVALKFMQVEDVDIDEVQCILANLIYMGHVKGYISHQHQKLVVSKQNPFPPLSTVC

[9] = target: T9, HeLa cell extract proteins (Homo sapiens, UniProt Q92616)
T9 construct: endogenous in cells; host or cells: HeLa cell extract
T9 sequence (Q92616 whole entry): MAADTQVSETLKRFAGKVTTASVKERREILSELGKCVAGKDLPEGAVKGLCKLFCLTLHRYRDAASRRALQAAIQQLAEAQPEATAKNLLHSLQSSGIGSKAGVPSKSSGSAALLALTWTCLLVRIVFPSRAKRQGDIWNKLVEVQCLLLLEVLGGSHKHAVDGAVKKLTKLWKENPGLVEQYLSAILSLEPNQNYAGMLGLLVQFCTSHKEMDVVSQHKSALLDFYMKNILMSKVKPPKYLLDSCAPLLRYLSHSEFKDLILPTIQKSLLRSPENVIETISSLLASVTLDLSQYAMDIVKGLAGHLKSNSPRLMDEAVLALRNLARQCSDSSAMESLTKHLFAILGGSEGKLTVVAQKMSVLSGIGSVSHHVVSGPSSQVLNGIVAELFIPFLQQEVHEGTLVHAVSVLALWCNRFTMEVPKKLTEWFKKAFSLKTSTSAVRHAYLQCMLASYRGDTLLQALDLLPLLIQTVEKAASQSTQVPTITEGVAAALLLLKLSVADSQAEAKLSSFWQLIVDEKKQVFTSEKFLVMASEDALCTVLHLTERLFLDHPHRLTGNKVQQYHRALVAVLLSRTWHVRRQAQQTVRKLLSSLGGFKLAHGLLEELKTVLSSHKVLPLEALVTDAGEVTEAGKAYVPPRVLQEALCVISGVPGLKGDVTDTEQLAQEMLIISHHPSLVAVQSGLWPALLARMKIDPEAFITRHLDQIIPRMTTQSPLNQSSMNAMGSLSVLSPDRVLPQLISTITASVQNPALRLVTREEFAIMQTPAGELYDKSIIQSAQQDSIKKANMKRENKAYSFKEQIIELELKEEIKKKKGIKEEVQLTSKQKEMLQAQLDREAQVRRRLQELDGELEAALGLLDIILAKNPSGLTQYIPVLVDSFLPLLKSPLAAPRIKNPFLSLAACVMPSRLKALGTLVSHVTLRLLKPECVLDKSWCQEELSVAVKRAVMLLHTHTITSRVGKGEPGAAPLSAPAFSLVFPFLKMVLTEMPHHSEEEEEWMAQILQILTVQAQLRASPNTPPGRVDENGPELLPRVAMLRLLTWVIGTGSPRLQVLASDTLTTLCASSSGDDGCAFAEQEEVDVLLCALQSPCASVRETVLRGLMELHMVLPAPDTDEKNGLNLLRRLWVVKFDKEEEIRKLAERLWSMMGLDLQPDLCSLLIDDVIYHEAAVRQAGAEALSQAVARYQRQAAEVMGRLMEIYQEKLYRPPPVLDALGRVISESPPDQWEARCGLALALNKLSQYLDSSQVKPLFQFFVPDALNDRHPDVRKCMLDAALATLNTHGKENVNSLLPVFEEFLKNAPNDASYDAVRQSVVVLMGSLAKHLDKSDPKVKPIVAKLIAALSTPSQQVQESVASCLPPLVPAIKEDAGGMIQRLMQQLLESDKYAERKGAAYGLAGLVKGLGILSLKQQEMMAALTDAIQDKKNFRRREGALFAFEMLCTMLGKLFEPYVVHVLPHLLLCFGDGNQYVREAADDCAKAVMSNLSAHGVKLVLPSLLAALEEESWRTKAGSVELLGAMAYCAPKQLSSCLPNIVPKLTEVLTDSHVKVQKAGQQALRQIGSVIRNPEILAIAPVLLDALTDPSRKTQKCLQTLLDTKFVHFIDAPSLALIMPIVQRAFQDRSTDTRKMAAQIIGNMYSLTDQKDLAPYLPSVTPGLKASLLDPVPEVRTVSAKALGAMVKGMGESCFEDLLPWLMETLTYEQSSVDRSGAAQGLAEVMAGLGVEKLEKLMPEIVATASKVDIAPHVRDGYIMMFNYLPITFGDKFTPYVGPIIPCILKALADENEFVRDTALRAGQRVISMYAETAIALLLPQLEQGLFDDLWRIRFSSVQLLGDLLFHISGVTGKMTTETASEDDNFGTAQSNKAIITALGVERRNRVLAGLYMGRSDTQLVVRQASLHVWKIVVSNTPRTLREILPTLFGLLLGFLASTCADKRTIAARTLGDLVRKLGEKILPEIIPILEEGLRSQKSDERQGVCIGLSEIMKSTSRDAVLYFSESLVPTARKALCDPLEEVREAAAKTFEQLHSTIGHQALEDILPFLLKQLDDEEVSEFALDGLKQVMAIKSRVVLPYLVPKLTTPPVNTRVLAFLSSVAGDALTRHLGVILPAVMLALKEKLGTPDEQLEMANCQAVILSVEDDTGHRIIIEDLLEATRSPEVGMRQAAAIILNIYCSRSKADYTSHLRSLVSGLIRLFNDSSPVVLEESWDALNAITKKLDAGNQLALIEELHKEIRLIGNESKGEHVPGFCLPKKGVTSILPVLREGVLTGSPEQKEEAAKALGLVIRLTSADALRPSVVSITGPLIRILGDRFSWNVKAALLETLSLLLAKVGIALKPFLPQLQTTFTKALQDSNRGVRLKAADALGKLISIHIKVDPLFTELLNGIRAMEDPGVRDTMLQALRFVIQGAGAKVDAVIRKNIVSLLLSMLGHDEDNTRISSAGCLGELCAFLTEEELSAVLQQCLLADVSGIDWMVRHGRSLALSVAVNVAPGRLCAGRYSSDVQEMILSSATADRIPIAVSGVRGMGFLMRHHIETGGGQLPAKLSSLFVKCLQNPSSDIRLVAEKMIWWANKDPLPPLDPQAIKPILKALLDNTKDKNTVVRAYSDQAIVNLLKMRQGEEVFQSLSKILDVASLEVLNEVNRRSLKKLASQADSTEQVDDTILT

[10] = HeLa, protein SSB (LUPUS LA PROTEIN.)
[11] = HeLa, protein PPIB (PEPT[…] B PRECURSOR.)
[12] = HeLa, protein CFL1 (COFILIN-1.)

Compound | fold changes relative to vehicle control [1, 10] [fold] | fold changes relative to vehicle control [2, 11] [fold] | fold changes relative to vehicle control [3, 12] [fold] | fold changes relative to vehicle control ([4]; protein CCT4, HeLa) | fold changes relative to vehicle control ([5]; protein CAP1, HeLa) | fold changes relative to vehicle control ([6]; protein C1QBP, HeLa) | fold changes relative to vehicle control ([7]; protein EFTUD2, HeLa) | fold changes relative to vehicle control ([8]; HeLa, protein PCID2) | fold changes relative to vehicle control ([9]; HeLa, protein GCN1L1) | fold changes relative to vehicle control ([1]; HeLa, protein SSB) | fold changes relative to vehicle control ([2]; HeLa, captured protein PPIB) | fold changes relative to vehicle control ([3]; protein CFL1, HeLa) | fold changes relative to vehicle control ([5]; HeLa, protein CAP1) | fold changes relative to vehicle control ([6]; HeLa, protein C1QBP) | fold changes relative to vehicle control ([7]; HeLa, protein EFTUD2) | fold changes relative to vehicle control ([8]; protein PCID2, HeLa) | fold changes relative to vehicle control ([9]; HeLa, captured protein GCN1L1) | also measured
Nc1nc2cccc(-c3ccccc3)c2n1Cc1ccc(Cl)c(Cl)c1 [compound 3] | 1.01 | 1.25 | 0.82 | 1 | 0.73 | 1 | 0.99 | 1.2 | 1.16 |  |  |  |  |  |  |  |  | 
CCCCCCOc1ccc(Cc2cnc(N)nc2N)cc1 [compound 1] | 1.38 | 1.37 | 1.27 | 1.25 | 1.19 | 1.12 | 1.11 | 1.13 | 1.07 |  |  |  |  |  |  |  |  | 
NCCCNc1ccc(C(=O)NC(CCC(=O)O)C(=O)O)cc1 (stereo not drawn) [compound 7] |  |  |  | 0.94 |  |  |  |  |  | 0.99 | 1.22 | 0.69 | 0.94 | 0.78 | 0.91 | 0.75 | 1.15 | 
CCCCCCOc1cccc(Cc2cnc(N)nc2N)c1 [compound 2] | 2.04 | 2.04 | 2.02 | 1.73 | 2.26 | 1.27 | 1.4 | 0.97 | 1.14 |  |  |  |  |  |  |  |  | 
NCCOCCOCC(=O)Nc1nc2ncc(CNc3ccc(C(=O)NC(CCC(=O)O)C(=O)O)cc3)nc2c(=O)[nH]1 (stereo not drawn) [compound 6] |  |  |  | 1.14 |  |  |  |  |  | 1.31 | 1.49 | 0.89 | 1.26 | 0.92 | 1.04 | 0.91 | 1.15 | 
Nc1nc2[nH]cc(CCc3ccc(C(=O)N[C@@H](CCC(=O)O)C(=O)O)cc3)c2c(=O)[nH]1 [PTX, pemetrexed] |  |  |  |  |  |  |  |  |  |  |  |  |  |  |  |  |  | fold changes relative to vehicle control [1]: 1.12; fold changes relative to vehicle control [2]: 1.11; fold changes relative to vehicle control [3]: 0.79; fold changes relative to vehicle control [4]: 1.01; fold changes relative to vehicle control [5]: 1.12; fold changes relative to vehicle control [6]: 0.92; fold changes relative to vehicle control [7]: 0.9; fold changes relative to vehicle control [8]: 0.68; fold changes relative to vehicle control [9]: 1.02
Nc1nc2c(c(=O)[nH]1)N(C=O)C(CNc1ccc(C(=O)N[C@@H](CCC(=O)O)C(=O)O)cc1)CN2 (stereo partly drawn) [LEU, leucovorin] |  |  |  | 1 |  |  |  |  |  | 1.03 | 1 | 0.76 | 1 | 0.85 | 0.97 | 0.74 | 1.04 | 
